Experimental data: article PMC7557402, “Evaluation of Nucleoside Analogs as Antimicrobials Targeting Unique Enzymes in Borrelia burgdorferi” (Pathogens, 2020)
“And” between values parts separate entries of the source, which are not always exact repeats. Equal entries are not always repeated. Where two headings read alike, the source gives them in different places.

Experiments:
B. burgdorferi N40 [1] = assay: Dark-field microscopy of treated cultures (motility); format: cell-based, Borrelia burgdorferi; settings: 24 h treatment
Procedure: The infectious N40 B. burgdorferi culture was treated with ten 2-fold serial dilutions of ampicillin overnight. Stocks of ampicillin at 200 µg/mL to 0.385 µg/mL concentrations were used to prepare different dilutions for treatment (final 10 to 0.0195 µg/well). The bioluminescence standard curve (Figure 3) was used to calculate the percentage of physiologically compromised B. burgdorferi after treatment with different ampicillin concentration for 24 h. Ampicillin treatment affected the viability of the spirochetes (Figure 4A). […] A prolonged incubation could increase killing by ampicillin at lower doses of drug. In addition to bioluminescence, the cultures were also observed under dark-field microscopy to examine viability.

[2] = tested on: B. burgdorferi strain N40; assay: microbe, parasite or virus in culture; format: cell-based, Borrelia burgdorferi; settings: 24 h treatment; calculated from graphs
Procedure: B. burgdorferi N40 strain carrying a firefly luciferase gene (Bbluc), which is a derivative of the N40D10/E9 clone, was used in this study and is labeled as N40 throughout. N40 was cultured at 33 °C in Barbour-Stoenner-Kelly-II (BSK-II) medium supplemented with 6% rabbit serum (BSKII-RS). Bacterial counts were determined under 400× magnification using a hemocytometer and a dark field microscope.
The luciferase expressing B. burgdorferi N40 strain was grown to a density of ~10^8 spirochetes/mL and divided into two aliquots. One aliquot was incubated at 60 °C for 30 min to kill the spirochetes. […] The culture was mixed with the substrate by shaking in the dark, incubated at 37 °C for 5 min in a Spectramax M2 microplate reader (Molecular Devices, San Jose, CA, USA) and the bioluminescence measured. […]
Nucleosides and nucleoside analogs were prepared as sterile 1 mM stock solutions in distilled water (MSeA, IADO, FSBA, and dEt-ImmA) or in DMSO (PurTA). […] Photon emission due to luciferase activity was measured at three time points, after: (a) 24 h, (b) 72 h, and (c) 7 days of treatments to observe the effect of inhibitors on B. burgdorferi culture. At the end of each time point, bioluminescence was measured as described above. […]

[3] = tested on: Borrelia MTANs (Bgp, MtnN, Pfs); assay: MTAN activity/kinetics, across the nucleosidases; format: biochemical
Procedure: (§1) Enzyme specific activities were determined using previously reported optimal pH conditions (50 mM sodium phosphate, pH = 7, for Bgp, MtnN; 50 mM sodium phosphate-citrate, pH = 5, for Pfs) and a spectrophotometric activity assay that measures the decrease in UV absorbance at 275 nm that occurs when MTA is cleaved to 5-methylthioribose and adenine (ε275 = 1.6 mM^−1cm^−1). The extinction coefficients for cleavage of other nucleosides were experimentally validated and found to be the same for MSeA, FSBA, and IADO (ε275 = 1.6 mM^−1cm^−1). Due to the added UV absorbance imparted by the 5′ purine group found in PurTA, the enzyme reactions were followed spectrophotometrically at 260 nm using the experimentally determined extinction coefficient of ε260 = 5.6 mM^−1cm^−1. Enzyme specific activities for MTA were generally 1–2 U/mg (1 U = µmol MTA hydrolyzed/min). The enzyme specific activities for other nucleosides were determined and reported in U/mg and as the % max specific activity (relative to MTA at 100%).
(§2) Kinetic constants have been previously reported for MTA [18]. As MSeA was also an efficient substrate for the B. burgdorferi nucleosidases, kinetic constants were determined using the activity assay described above, varying the nucleoside concentrations from 1 to 20 µM, and fitting the data on substrate-velocity plots to the Michaelis–Menten equation using GraphPad Prism (version 6):(1) Vo=Vmax[S]/Km+[S]
For the other compounds, inhibition constants (Ki’s) were determined as previously described, using an MTA concentration of 100 µM and varying the inhibitor concentration from 0 to 100 µM. The inhibited velocity (Vo’) and uninhibited velocity (Vo) values were determined, and the ratio of Vo’/Vo plotted as a function of inhibitor concentration. Ki values were calculated from these plots by fitting the data to the equation for competitive inhibition using GraphPad Prism:(2) Vo^′/Vo=Km+[S]/Km+[S]+(Km[I]/Ki)

Bgp [4] = target: T1, Bgp (Borreliella burgdorferi, UniProt Q9F952); assay: MTAN spectrophotometric activity assay (specific activity, Km); format: biochemical, Borrelia burgdorferi; settings: for Specific Activity: pH 7, 1 U = 1 µmol MTA hydrolyzed per minute; for % Max Specific Activity: relative to MTA as a substrate
Procedure: (§3) Recombinant MTANs were expressed and purified as previously described. Briefly, overnight 10 mL cultures of recombinant E. coli BL21(DE3) pLysS cells containing engineered pET30a expression plasmids for Bgp, MtnN or Pfs were grown at 37 °C with shaking (150 rpm) in LB broth supplemented with 50 µg/mL kanamycin and 0.5% glucose. The culture was diluted 1:50 in fresh medium and incubated at 37 °C with shaking (150 rpm) until the absorbance (600 nm) reached 0.4–0.6. Protein expression was induced with the addition of isopropyl β-D-1-thiogalactopyranoside (IPTG) to a final concentration of 1 mM and continued overnight incubation with shaking at 30 °C. Cells were harvested by centrifugation (10,000× g/15 min), and the pellet was washed once with ice-cold lysis buffer (50 mM sodium phosphate, pH = 8.0, 300 mM NaCl, 10 mM imidazole, 2mM β mercaptoethanol). Harvested cell pellets were resuspended in 10 mL fresh lysis buffer and lysed by sonication on ice using a Misonix Sonicator 300 (power setting 7, pulse 30 s, 1 min cooling with total sonication for 2.5 min). The cell lysates were centrifuged at 10,000× g for 15 min at 4 °C to remove debris, and the lysate was further filtered through a […] syringe filter to obtain a clear extract. Recombinant N-terminal hexahistidine tagged proteins were purified from the lysate using HisPur™ affinity columns (Thermo Scientific) according to the manufacturer’s specifications, and specifically eluted with 250 mM imidazole containing buffer (pH = 7). Eluted materials were analyzed by SDS-PAGE and Coomassie blue staining and found to be >95% homogeneous. Enzyme concentrations were determined using UV scans on a Cary100 spectrophotometer (Agilent) to determine the absorbance at 280 nm and applying extinction coefficients (0.1%) of 0.594 (Bgp), 0.637 (MtnN), and 0.404 (Pfs). Enzyme stocks (1 mg/mL) were prepared in 20% glycerol and stored at −80 °C.
as §1, §2

MtnN [5] = target: T2, MtnN (Borreliella burgdorferi, UniProt O50860); assay: as above; format: biochemical, Borrelia burgdorferi; settings: for Specific Activity: pH 7, 1 U = 1 µmol MTA hydrolyzed per minute; for % Max Specific Activity: relative to MTA as a substrate
Procedure: as §3, §1, §2

Pfs [6] = target: T3, Pfs (Borreliella burgdorferi, UniProt O50162); assay: as above; format: biochemical, Borrelia burgdorferi; settings: for Specific Activity: pH 5, 1 U = 1 µmol MTA hydrolyzed per minute; for % Max Specific Activity: relative to MTA as a substrate
Procedure: as §3, §1, §2

E. coli MTAN = tested on: E. coli MTAN; set-up: method as in PMID 8941345; settings: radioactive enzyme assay; cited from earlier work
B. burgdorferi N40 [7] = assay: Subculture without inhibitor after 7 days of treatment: bacteriostatic versus bactericidal; format: cell-based, Borrelia burgdorferi; settings: for Inhibitor Activity: 7 days of treatment, then subculture
Procedure: After 7 days of treatment, a 5 µL aliquot from each treatment tube (and untreated control) was added to 1 mL of BSKII-RS medium to allow any remaining viable spirochetes in the sample to grow. After incubation for 7–21 days at 33 °C, the survival of the spirochetes was determined using dark-field microscopy to observe motility and by employing bioluminescence measurements to assess vitality of the recovered culture.
To further differentiate between bacteriostatic versus bactericidal activities of MTAN inhibitors, we subcultured drug treated spirochetes in the absence of inhibitors to recover any live B. burgdorferi remaining after seven days of inhibitor treatment (summarized in Table 4). If non-motile spirochetes from treated cultures were able to grow back, the inhibitor was determined to have a bacteriostatic effect at the selected concentration. […] Spirochete survival was determined by both dark-field microscopy and bioluminescence measurements. Microscopic examination allowed assessment of motility of the spirochetes whereas bioluminescence assays assessed recovery and viability of B. burgdorferi cells. […] By comparison, a reduction in bioluminescence compared to the untreated control was observed after treatment with dEt-ImmA at a 0.4 µM or greater concentration. […] After seven days of treatment, live spirochetes were only recovered when concentrations of ≤0.4 µM were used for dEt-ImmA and IADO.

Pfs [8] = target: T3, Pfs; set-up: method as in Cornell et al., 2020 [18]; settings: reported previously, ref Cornell et al., 2020 [18], cited from earlier work
Bgp [9] = target: T1, Bgp; set-up: method as in Cornell et al., 2020 [18]; settings: reported previously, ref Cornell et al., 2020 [18], cited from earlier work
MtnN [10] = target: T2, MtnN; set-up: method as in Cornell et al., 2020 [18]; settings: reported previously, ref Cornell et al., 2020 [18], cited from earlier work
Pfs [11] = target: T3, Pfs; settings: reported previously, ref Cornell et al., 2020 [18], read-out: Km (Michaelis constant); cited from earlier work
MtnN [12] = target: T2, MtnN; settings: reported previously, ref Cornell et al., 2020 [18], read-out: Km (Michaelis constant); cited from earlier work
Bgp [13] = target: T1, Bgp; set-up: method as in Cornell et al., 2020 [18]; settings: reported previously, ref Cornell et al., 2020 [18], read-out: Km (Michaelis constant); cited from earlier work
[14] = nucleoside 1 to 20 µM, read-out: Km (Michaelis constant)
[15] = read-out: Ki (inhibition constant)

T3 sequence (O50162 entry or part of it): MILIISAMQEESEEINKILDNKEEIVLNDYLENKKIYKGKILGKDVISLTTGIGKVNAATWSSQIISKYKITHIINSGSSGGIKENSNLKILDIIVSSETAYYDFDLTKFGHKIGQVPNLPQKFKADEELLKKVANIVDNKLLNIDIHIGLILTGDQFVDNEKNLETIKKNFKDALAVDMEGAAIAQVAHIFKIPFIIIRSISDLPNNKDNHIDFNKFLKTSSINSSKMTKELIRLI
T1 sequence (Q9F952 entry or part of it): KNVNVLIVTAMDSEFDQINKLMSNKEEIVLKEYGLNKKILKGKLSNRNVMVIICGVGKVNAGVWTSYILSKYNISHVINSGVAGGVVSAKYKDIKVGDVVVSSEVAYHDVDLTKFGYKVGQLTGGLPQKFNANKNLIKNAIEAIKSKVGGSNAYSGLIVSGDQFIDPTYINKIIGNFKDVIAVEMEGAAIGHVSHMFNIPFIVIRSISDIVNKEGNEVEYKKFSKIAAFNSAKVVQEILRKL
T2 sequence (O50860 entry or part of it): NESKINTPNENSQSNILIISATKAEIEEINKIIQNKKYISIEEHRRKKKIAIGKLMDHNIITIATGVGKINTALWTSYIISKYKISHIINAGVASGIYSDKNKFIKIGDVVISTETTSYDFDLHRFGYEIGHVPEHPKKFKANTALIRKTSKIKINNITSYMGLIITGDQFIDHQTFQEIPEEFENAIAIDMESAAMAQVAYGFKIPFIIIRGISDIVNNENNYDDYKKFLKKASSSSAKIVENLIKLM

With `CC1(C)S[C@@H]2[C@H](NC(=O)[C@H](N)c3ccccc3)C(=O)N2[C@H]1C(=O)O` [ampicillin, reference compound] the “concentration at which majority of the spirochetes were non-motile with stripping of the outer membrane” value (B. burgdorferi N40 [1]) was ≥ 0.625 µg/well and the “IC50 (percent of physiologically compromised B. burgdorferi)” value [2] was ~ 0.31 µg/µL of culture.
With “5′-deoxy-5′-methylselenoadenosine [MSeA]” the “specific activities higher than MTA” value ([3]; Bgp and MtnN) was 50–79%, the Km ([3]; range over all three nucleosidases) was 1.5 to 2.1 µM and 1.5 to 2 µM and the Km (Bgp [4]; [14]) was 1.62 µM. For the same compound, the “Specific Activity” value (Bgp [4]) was 1.79 U/mg, the “% Max Specific Activity” value (Bgp [4]) was 179% and the Km (MtnN [5]; [14]) was 1.5 µM. For the same compound, the “Specific Activity” value (MtnN [5]) was 1.50 U/mg, the “% Max Specific Activity” value (MtnN [5]) was 150% and the Km (Pfs [6]; [14]) was 2.12 µM. For the same compound, the “Specific Activity” value (Pfs [6]) was 0.27 U/mg, the “% Max Specific Activity” value (Pfs [6]) was 16% and the IC50 (E. coli MTAN) was ~4000 nM. The “Inhibitor Activity” value (B. burgdorferi N40 [7]; Dose: All doses (0.0032–10 µM)) was “Bacteriostatic” and the “recovery of spirochetes (bioluminescence comparable with untreated controls)” value (B. burgdorferi N40 [7]; all concentrations, 12 days of incubation of subcultured bacteria) was “fully recovered”.
For `CCC[C@H]1N[C@@H](c2c[nH]c3c(N)ncnc23)[C@H](O)[C@@H]1O` [dEt-ImmA, 5′-deoxy-5′-ethyl-immucillin A], the Ki (Pfs [8]; [15]) is listed as 10.5 nM, the “Ki’ (delayed onset inhibition constant)” value (Pfs [8]) is listed as 0.53 ± 0.15 nM and the Ki (Bgp [9]; [15]) is listed as 2.48 nM. For the same compound, the “Ki’ (delayed onset inhibition constant)” value (Bgp [9]) was 0.35 ± 0.02 nM, the “recovery of live spirochetes” value (B. burgdorferi N40 [7]; 2 µM and 10 µM, 21 days of subculture in media lacking MTAN inhibitors) was “no live spirochetes were recovered” and the “Inhibitor Activity” value (B. burgdorferi N40 [7]; Dose: 2 µM, 10 µM) was “Bactericidal”. The “concentration giving a reduction in bioluminescence compared to the untreated control” value (B. burgdorferi N40 [7]; after 12 days of incubation of subcultured bacteria) was ≥ 0.4 µM, the “concentrations at which live spirochetes were recovered” value (B. burgdorferi N40 [7]; after seven days of treatment) was ≤ 0.4 µM and the “concentrations that exert bactericidal activity” value (B. burgdorferi N40 [7]; after seven days of treatment, bacteriostatic at lower concentrations) was ≥ 1 µM. For the same compound, the Ki (MtnN [10]; [15]) was 1.48 nM and the “Ki’ (delayed onset inhibition constant)” value (MtnN [10]) was 0.58 ± 0.05 nM.
For “5′-deoxy-5′-methylthioadenosine [MTA, reference compound]”, the Km (Pfs [11]) is given as 0.61 µM, the Km (MtnN [12]) is given as 9.09 µM and the “Specific Activity” value (Bgp [4]) is given as 1.00 U/mg. For the same compound, the “% Max Specific Activity” value (Bgp [4]) was 100%, the “Specific Activity” value (MtnN [5]) was 1.00 U/mg and the “% Max Specific Activity” value (MtnN [5]) was 100%. For the same compound, the “Specific Activity” value (Pfs [6]) was 1.70 U/mg, the “% Max Specific Activity” value (Pfs [6]) was 100% and the Km (Bgp [13]) was 0.49 µM.
